One series has as its system piglets. Description: GILAX as feed additive for pig health after weaning. Type of series: in vivo. Conditions: in-feed amoxicillin at 50 mg/kg/day for 21 days (positive control).
For another series, the system named is C. albicans ATCC 14053. Kind of series: Antimicrobial activity, Minimum Inhibitory Concentration. Conditions: for Minimum Inhibitory Concentration: C. albicans ATCC 14053. Type of series: cell-based, Candida albicans.
The test system of another series is V. cholerae 6239. The description is as above. The format is cell-based, Vibrio cholerae. Conditions: for Minimum Inhibitory Concentration: V. cholerae 6239.
The subject of a further series is L. plantarum. Described as above. The format is cell-based, Lactobacillus plantarum. Conditions: for Minimum Inhibitory Concentration: L. plantarum.
Another series has as its system E. coli HS. The description is as above. Type of series: cell-based, Escherichia Coli.
The next series has as its system Staph. Aureus ATCC 29213. Described as above. Type of series: cell-based, Staphylococcus aureus.
Another series concerns Strep. Group B MCR1 27. The series is described as above. Conditions: for Minimum Inhibitory Concentration: Strep. Group B MCR1 27. Type of series: cell-based, Streptococcus Group B.
The test system of series [1] is hFUT1 mouse model of colitis. Description: Treatment of IBD on mouse model. Conditions: Group 2: berberine chloride 13.5 mg/kg/day (o.s.). The format is in vivo. The source says:
hFUT1 mouse model of colitis was used. It provides insights into the pathogenesis of Inflammatory Bowel Disease (IBD). […] Immune dysfunction contributing to IBD in humans includes abnormal T cell reactivity and a loss of tolerance to gut bacteria. The compositions of Formula (1) and Formula (2) were given orally to mice to see the effectiveness on the altering the gut flora and lessening the severity of the colitis. The positive results indicated the compositions of Formula and Formula (2) may have a therapeutic role in human IBD.
A total five groups with ten mice per group were used as follows. • 1) Control (without treatment). • 2) Treated with compound of the Formula (1) (berberine chloride), 13.5 mg/kg/day (o.s.). • 3) Treated with compound of the Formula (2) (40% oxidized cellulose), 114 mg/kg/day (o.s.). • 4) Treated with composition of the Formula (1) (berberine chloride) (6.7 mg/kg/day) and the Formula (2) (40% oxidized cellulose) (57 mg/kg/day) (o.s.). • 5) Treated with composition of the Formula (1) (berberine chloride) (13.5 mg/kg/day) and the Formula (2) (114 mg/kg/day) (o.s.).

A further series has as its system Escherichia Coli. Kind of series: Loss of filaments and of attachment to intestinal wall below the MIC. The format is cell-based. Conditions: berberine at 5 µg/ml, much lower than MIC. The source says:
(§1) This specific property of berberine offers an important aspect as a GI tract cleanser, since it can selectively remove pathogenic bacteria from the gut without affecting the inhabitations of the probiotic bacteria in GI tract, and without exerting excessive drug pressure on the bacteria, which may lead to drug resistance.

The test system of series [2] is Cl. perfringens ATCC 1124. Type of series: cell-based. Conditions: Clostridium perfringens.
The conditions of series [3]: across the intestinal tissue; reference [13]; cited from earlier work.
The next series concerns IL-8. Description: Inhibition of IL-8 production.
A further series has as its system interleukine-12 (IL-12). Description: Induction of interleukine-12.
A further series has as its system chickens. Description: Pilot chicken experiment (feed additives, growth and red combs).
The test system of another series is Lactobacilli. Kind of series: Effect on probiotic bacteria below the MIC. The format is cell-based. Conditions: berberine at 5 µg/ml.
Source text: as §1

For `CC1(C)S[C@@H]2[C@H](NC(=O)[C@H](N)c3ccc(O)cc3)C(=O)N2[C@H]1C(=O)O` [Amoxicillin, amoxicillin], in the series with piglets, the “health of piglets after weaning” value is “all healthy” and the “need of injectable amoxicillin for sick piglets” value is recorded as “no injectable amoxicillin was needed”.

In the case of `CC[C@H]1OC(=O)[C@H](C)[C@@H](O[C@H]2C[C@@](C)(OC)[C@@H](O)[C@H](C)O2)[C@H](C)[C@@H](O[C@@H]2O[C@H](C)C[C@H](N(C)C)[C@H]2O)[C@](C)(O)C[C@@H](C)C(=O)[C@H](C)[C@@H](O)[C@]1(C)O` [Erythromycin, reference compound], the “Minimum Inhibitory Concentration” value was greater than 10 µg/mL in the series with C. albicans ATCC 14053; greater than 10 µg/mL in the series on V. cholerae 6239; less than 0.625 µg/mL with L. plantarum; greater than 10 µg/mL with E. coli HS; less than 0.625 µg/mL in the series on Staph. Aureus ATCC 29213 (Staph. Aureus ATCC 29213); less than 0.625 µg/mL in the series with Strep. Group B MCR1 27.

With `COc1ccc2cc3[n+](cc2c1OC)CCc1cc2c(cc1-3)OCO2.[Cl-]` [berberine chloride], the “Minimum Inhibitory Concentration” value is 62.5 µg/mL in the series with C. albicans ATCC 14053; 125 µg/mL with V. cholerae 6239; 500 µg/mL in the series with L. plantarum; greater than 500 µg/mL in the series with E. coli HS; 62.5 µg/mL in the series with Strep. Group B MCR1 27. Moreover, the “inhibition of pathogenic bacteria (in words)” value (with C. albicans ATCC 14053 (Candida albicans); in the series on V. cholerae 6239 (Vibrio cholerae); in the series on Staph. Aureus ATCC 29213 (Staphylococcus aureus); in series [2]; with Strep. Group B MCR1 27 (Streptococcus Group B)) was “selectively inhibits” throughout. In series [1], the “Survival rate after 56 days treatment” value was 5/10. In addition, the “inhibition of beneficial bacteria (probiotics) (in words)” value in the series on L. plantarum (Lactobacillus plantarum, at <500 µg/ml) is recorded as “does not inhibit”. Besides, in the series on Escherichia Coli, the “effect on filaments and attachment on the wall of intestine” value was “lost their filaments and were unable to attach on the wall of intestine”. In addition, the “apparent permeability coefficient (Papp)” value in series [3] is listed as ~10^−7 cm/s. Moreover, in the series on IL-8, the “inhibition of the production of IL-8” value is recorded as “inhibit the production of IL-8”. Also, the “induction of interleukine-12 (IL-12)” value with interleukine-12 (IL-12) is on record as “could induce”. Further, the “Growth rate compared to that of the control on day 36” value with chickens (Group A: 50 ppm berberine chloride in feed) was 106.36% (p = 0.05); with chickens (Group B: 10 ppm berberine chloride in feed) it was 101.79%. In addition, the “Red Combs (Number of red comb/total number of chickens)” value was 0/5 with chickens (Group A: 50 ppm berberine chloride in feed, Day 14 (start of additive)); 1/5 with chickens (Group A: 50 ppm berberine chloride in feed, Day 17); 1/5 with chickens (Group A: 50 ppm berberine chloride in feed, Day 21); 3/5 in the series with chickens (Group A: 50 ppm berberine chloride in feed, Day 24); 3/5 in the series on chickens (Group A: 50 ppm berberine chloride in feed, Day 26); 4/5 with chickens (Group A: 50 ppm berberine chloride in feed, Day 32). The “Red Combs (Number of red comb/total number of chickens)” value in the series with chickens (Group A: 50 ppm berberine chloride in feed, Day 36) is reported as 4/5; in the series with chickens (Group B: 10 ppm berberine chloride in feed, Day 14 (start of additive)), 0/5; in the series with chickens (Group B: 10 ppm berberine chloride in feed, Day 17) it was 0/5; in the series with chickens (Group B: 10 ppm berberine chloride in feed, Day 21), 2/5; with chickens (Group B: 10 ppm berberine chloride in feed, Day 24), 2/5; in the series on chickens (Group B: 10 ppm berberine chloride in feed, Day 26), 3/5. Moreover, the “Red Combs (Number of red comb/total number of chickens)” value was 4/5 in the series with chickens (Group B: 10 ppm berberine chloride in feed, Day 32) and 5/5 in the series with chickens (Group B: 10 ppm berberine chloride in feed, Day 36). For the same molecule, the “residue found in the meat of chickens” value in the series with chickens (after feeding as feed additive) is “no residue”. Moreover, the “effect on probiotic bacteria” value in the series with Lactobacilli is “did not affect”.
